# In patent US8802597B2, “Herbicidal pyrimidines” (E I du Pont de Nemours and Company, priority 2003, dated 2014):
# Experiments:
# Experiment in all cases: Test G pre/postemergence
# Assay type in all cases: in vivo
# Conditions in all cases: Preemergence
# [1] = system: field bindweed (Convolvulus arvensis)
# How it was run: (§1)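 Seeds or nutlets were planted and treated preemergence with compound formulated in a non-phytotoxic solvent mixture containing surfactant; plants 2 to 18 cm tall (1- to 4-leaf stage) received postemergence sprays of the same formulation. After 12 to 21 days in a greenhouse, injury was rated visually against untreated controls on a 0–100 scale (100 = complete control).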
# [2] = system: pitted morningglory (Ipomoea lacunosa)
# How it was run: as §1
# [3] = system: annual bluegrass (Poa annua)
# How it was run: as §1
# [4] = system: common mallow (Malva sylvestris)
# How it was run: as §1
# [5] = system: broadleaf signalgrass (Brachiaria platyphylla)
# How it was run: as §1
# [6] = system: quackgrass (Elytrigia repens)
# How it was run: as §1
# [7] = system: black mustard (Brassica nigra)
# How it was run: as §1
# [8] = system: prickly sida (Sida spinosa)
# How it was run: as §1
# [9] = system: southern sandbur (Cenchrus echinatus)
# How it was run: as §1
# [10] = system: common chickweed (Stellaria media)
# How it was run: as §1
# [11] = system: green foxtail (Setaria viridis)
# How it was run: as §1
# [12] = system: goosegrass (Eleusine indica)
# How it was run: as §1
# [13] = system: barnyardgrass (Echinochloa crus-galli)
# How it was run: as §1
# [14] = system: large crabgrass (Digitaria sanguinalis)
# How it was run: as §1
compound,measurement,setting,value
"COC(=O)c1nc(C2CC2)nc(N)c1Cl [Compound 9, methyl 6-amino-5-chloro-2-cyclopropyl-4-pyrimidinecarboxylate]","Plant response rating, Bindweed, Field","[1]; 62 g ai/ha, scale 0-100",95
same,"Plant response rating, Bindweed, Field","[1]; 125 g ai/ha, scale 0-100",100
same,"Plant response rating, Bindweed, Field","[1]; 250 g ai/ha, scale 0-100",100
same,"Plant response rating, Bindweed, Field","[1]; 500 g ai/ha, scale 0 to 100",100
same,"Plant response rating, Morningglory","[2]; 62 g ai/ha, scale 0-100",70
same,"Plant response rating, Morningglory","[2]; 125 g ai/ha, scale 0-100",100
same,"Plant response rating, Morningglory","[2]; 250 g ai/ha, scale 0-100",100
same,"Plant response rating, Morningglory","[2]; 500 g ai/ha, scale 0 to 100",100
same,"Plant response rating, Bluegrass","[3]; 62 g ai/ha, scale 0-100",10
same,"Plant response rating, Bluegrass","[3]; 125 g ai/ha, scale 0-100",30
same,"Plant response rating, Bluegrass","[3]; 250 g ai/ha, scale 0-100",95
same,"Plant response rating, Bluegrass","[3]; 500 g ai/ha, scale 0 to 100",100
same,"Plant response rating, Mallow","[4]; 62 g ai/ha, scale 0-100",90
same,"Plant response rating, Mallow","[4]; 125 g ai/ha, scale 0-100",100
same,"Plant response rating, Mallow","[4]; 250 g ai/ha, scale 0-100",100
same,"Plant response rating, Mallow","[4]; 500 g ai/ha, scale 0 to 100",100
same,"Plant response rating, Signalgrass","[5]; 62 g ai/ha, scale 0-100",20
same,"Plant response rating, Signalgrass","[5]; 125 g ai/ha, scale 0-100",80
same,"Plant response rating, Signalgrass","[5]; 250 g ai/ha, scale 0-100",80
same,"Plant response rating, Signalgrass","[5]; 500 g ai/ha, scale 0 to 100",100
same,"Plant response rating, Quackgrass","[6]; 62 g ai/ha, scale 0-100",70
same,"Plant response rating, Quackgrass","[6]; 250 g ai/ha, scale 0-100",70
same,"Plant response rating, Quackgrass","[6]; 500 g ai/ha, scale 0 to 100",100
same,"Plant response rating, Black Mustard","[7]; 62 g ai/ha, scale 0-100",70
same,"Plant response rating, Black Mustard","[7]; 125 g ai/ha, scale 0-100",75
same,"Plant response rating, Black Mustard","[7]; 250 g ai/ha, scale 0-100",100
same,"Plant response rating, Black Mustard","[7]; 500 g ai/ha, scale 0 to 100",100
same,"Plant response rating, Prickly Sida","[8]; 62 g ai/ha, scale 0-100",95
same,"Plant response rating, Prickly Sida","[8]; 125 g ai/ha, scale 0-100",100
same,"Plant response rating, Prickly Sida","[8]; 250 g ai/ha, scale 0-100",100
same,"Plant response rating, Prickly Sida","[8]; 500 g ai/ha, scale 0 to 100",100
same,"Plant response rating, Sandbur","[9]; 125 g ai/ha, scale 0-100",80
same,"Plant response rating, Sandbur","[9]; 250 g ai/ha, scale 0-100",90
same,"Plant response rating, Sandbur","[9]; 500 g ai/ha, scale 0 to 100",95
same,"Plant response rating, Chickweed","[10]; 125 g ai/ha, scale 0-100",100
same,"Plant response rating, Chickweed","[10]; 250 g ai/ha, scale 0-100",100
same,"Plant response rating, Chickweed","[10]; 500 g ai/ha, scale 0 to 100",100
same,"Plant response rating, Foxtail, Green","[11]; 62 g ai/ha, scale 0-100",20
same,"Plant response rating, Foxtail, Green","[11]; 125 g ai/ha, scale 0-100",85
same,"Plant response rating, Foxtail, Green","[11]; 250 g ai/ha, scale 0-100",100
same,"Plant response rating, Foxtail, Green","[11]; 500 g ai/ha, scale 0 to 100",100
same,"Plant response rating, Goosegrass","[12]; 62 g ai/ha, scale 0-100",10
same,"Plant response rating, Goosegrass","[12]; 125 g ai/ha, scale 0-100",60
same,"Plant response rating, Goosegrass","[12]; 250 g ai/ha, scale 0-100",95
same,"Plant response rating, Goosegrass","[12]; 500 g ai/ha, scale 0 to 100",95
same,"Plant response rating, Barnyardgrass","[13]; 62 g ai/ha, scale 0-100",30
same,"Plant response rating, Barnyardgrass","[13]; 125 g ai/ha, scale 0-100",70
same,"Plant response rating, Barnyardgrass","[13]; 250 g ai/ha, scale 0-100",85
same,"Plant response rating, Barnyardgrass","[13]; 500 g ai/ha, scale 0 to 100",95
same,"Plant response rating, Crabgrass, Large","[14]; 62 g ai/ha, scale 0-100",70
same,"Plant response rating, Crabgrass, Large","[14]; 125 g ai/ha, scale 0-100",90
same,"Plant response rating, Crabgrass, Large","[14]; 250 g ai/ha, scale 0-100",90
same,"Plant response rating, Crabgrass, Large","[14]; 500 g ai/ha, scale 0 to 100",100
"CCOC(=O)c1nc(C2CC2)nc(N)c1Cl [Compound 4, ethyl 6-amino-5-chloro-2-cyclopropyl-4-pyrimidinecarboxylate]","Plant response rating, Bindweed, Field","[1]; 62 g ai/ha, scale 0-100",100
same,"Plant response rating, Bindweed, Field","[1]; 125 g ai/ha, scale 0-100",100
same,"Plant response rating, Bindweed, Field","[1]; 250 g ai/ha, scale 0-100",100
same,"Plant response rating, Bindweed, Field","[1]; 500 g ai/ha, scale 0 to 100",100
same,"Plant response rating, Morningglory","[2]; 62 g ai/ha, scale 0-100",100
same,"Plant response rating, Morningglory","[2]; 125 g ai/ha, scale 0-100",100
same,"Plant response rating, Morningglory","[2]; 250 g ai/ha, scale 0-100",100
same,"Plant response rating, Morningglory","[2]; 500 g ai/ha, scale 0 to 100",100
same,"Plant response rating, Bluegrass","[3]; 62 g ai/ha, scale 0-100",10
same,"Plant response rating, Bluegrass","[3]; 125 g ai/ha, scale 0-100",60
same,"Plant response rating, Bluegrass","[3]; 250 g ai/ha, scale 0-100",80
same,"Plant response rating, Bluegrass","[3]; 500 g ai/ha, scale 0 to 100",100
same,"Plant response rating, Mallow","[4]; 62 g ai/ha, scale 0-100",100
same,"Plant response rating, Mallow","[4]; 125 g ai/ha, scale 0-100",100
same,"Plant response rating, Mallow","[4]; 250 g ai/ha, scale 0-100",100
same,"Plant response rating, Mallow","[4]; 500 g ai/ha, scale 0 to 100",100
same,"Plant response rating, Signalgrass","[5]; 62 g ai/ha, scale 0-100",50
same,"Plant response rating, Signalgrass","[5]; 125 g ai/ha, scale 0-100",70
same,"Plant response rating, Signalgrass","[5]; 250 g ai/ha, scale 0-100",95
same,"Plant response rating, Signalgrass","[5]; 500 g ai/ha, scale 0 to 100",95
same,"Plant response rating, Quackgrass","[6]; 62 g ai/ha, scale 0-100",60
same,"Plant response rating, Quackgrass","[6]; 125 g ai/ha, scale 0-100",90
same,"Plant response rating, Quackgrass","[6]; 250 g ai/ha, scale 0-100",100
same,"Plant response rating, Quackgrass","[6]; 500 g ai/ha, scale 0 to 100",100
same,"Plant response rating, Black Mustard","[7]; 62 g ai/ha, scale 0-100",95
same,"Plant response rating, Black Mustard","[7]; 125 g ai/ha, scale 0-100",95
same,"Plant response rating, Black Mustard","[7]; 250 g ai/ha, scale 0-100",100
same,"Plant response rating, Black Mustard","[7]; 500 g ai/ha, scale 0 to 100",100
same,"Plant response rating, Prickly Sida","[8]; 62 g ai/ha, scale 0-100",85
same,"Plant response rating, Prickly Sida","[8]; 125 g ai/ha, scale 0-100",100
same,"Plant response rating, Prickly Sida","[8]; 250 g ai/ha, scale 0-100",100
same,"Plant response rating, Prickly Sida","[8]; 500 g ai/ha, scale 0 to 100",100
same,"Plant response rating, Sandbur","[9]; 62 g ai/ha, scale 0-100",30
same,"Plant response rating, Sandbur","[9]; 125 g ai/ha, scale 0-100",80
same,"Plant response rating, Sandbur","[9]; 250 g ai/ha, scale 0-100",90
same,"Plant response rating, Sandbur","[9]; 500 g ai/ha, scale 0 to 100",100
same,"Plant response rating, Chickweed","[10]; 62 g ai/ha, scale 0-100",100
same,"Plant response rating, Chickweed","[10]; 125 g ai/ha, scale 0-100",100
same,"Plant response rating, Chickweed","[10]; 250 g ai/ha, scale 0-100",100
same,"Plant response rating, Chickweed","[10]; 500 g ai/ha, scale 0 to 100",100
same,"Plant response rating, Foxtail, Green","[11]; 62 g ai/ha, scale 0-100",20
same,"Plant response rating, Foxtail, Green","[11]; 125 g ai/ha, scale 0-100",70
same,"Plant response rating, Foxtail, Green","[11]; 250 g ai/ha, scale 0-100",100
same,"Plant response rating, Foxtail, Green","[11]; 500 g ai/ha, scale 0 to 100",100
same,"Plant response rating, Goosegrass","[12]; 62 g ai/ha, scale 0-100",10
same,"Plant response rating, Goosegrass","[12]; 125 g ai/ha, scale 0-100",60
same,"Plant response rating, Goosegrass","[12]; 250 g ai/ha, scale 0-100",70
same,"Plant response rating, Goosegrass","[12]; 500 g ai/ha, scale 0 to 100",90
same,"Plant response rating, Barnyardgrass","[13]; 62 g ai/ha, scale 0-100",50
same,"Plant response rating, Barnyardgrass","[13]; 125 g ai/ha, scale 0-100",70
same,"Plant response rating, Barnyardgrass","[13]; 250 g ai/ha, scale 0-100",80
same,"Plant response rating, Barnyardgrass","[13]; 500 g ai/ha, scale 0 to 100",100
same,"Plant response rating, Crabgrass, Large","[14]; 62 g ai/ha, scale 0-100",60
same,"Plant response rating, Crabgrass, Large","[14]; 125 g ai/ha, scale 0-100",75
same,"Plant response rating, Crabgrass, Large","[14]; 250 g ai/ha, scale 0-100",100
same,"Plant response rating, Crabgrass, Large","[14]; 500 g ai/ha, scale 0 to 100",100
